From patent publication US20250169505A1, “INSECT PEST CONTROL BY A MIXTURE OF LURING SUBSTANCES WITH PATHOGENIC BIO-INSECTICIDES” (GREEN PROTECTA SA, priority 2022, published 2025)

System: thrips (Frankliniella occidentalis)
Assay: Example 1: powder adherence on thrips body
Format: in vivo
Settings: mesh cage, Petri dish filled with powdery carrier
Excerpt: From 250 individual thrips (Frankliniella occidentalis) sourced from the company Bionema Limited in Swansea, 50 were released in mesh cages where fresh flowers and green beans were growing, and which contained a Petri dish filled with one powdery carriers.

Row | Structure (SMILES) | fate of thrips after contact with the powder
1 | O=C(CO)[C@@H](O)[C@H](O)[C@H](O)CO [fructose] | died thereafter
2 | CCCCCCCCCCCCCCCCCC(=O)O [stearic acid] | died thereafter
